Results from patent US11026426B2, “Oxadiazole and phenol derivatives as antibacterial and/or herbicidal agents” (NORTHERN ILLINOIS RESEARCH FOUNDATION, priority 2017, dated 2021).
Read-outs that look alike come from different tables or passages of the source.

Tests used:
Assay type in all cases: cell-based
Corynebacterium xerosis = assay: Antibacterial assay zone of inhibition Cx
Mycobacterium smegmatis = assay: Antibacterial assay zone of inhibition Ms
Bacillus cereus = assay: Antibacterial assay zone of inhibition Bc
[1] = system: Burkholderia thailandensis
Escherichia coli = assay: Antibacterial assay zone of inhibition Ec
[2] = system: Corynebacterium pseudodiphtheriae; assay: Antibacterial assay zone of inhibition Cp
Klebsiella pneumonia = assay: Antibacterial assay zone of inhibition Kp
Micrococcus luteus = assay: Antibacterial assay zone of inhibition Ml
Pseudomonas aeruginosa = assay: Antibacterial assay zone of inhibition Pa

Row | SMILES | Antibacterial Cx zone of inhibition (Corynebacterium xerosis; 0.1 mM) [millimeters] | Antibacterial Cx zone of inhibition (Corynebacterium xerosis; 0.5 mM) [millimeters] | Antibacterial Cx zone of inhibition (Corynebacterium xerosis; 1 mM) [millimeters] | Antibacterial Ms zone of inhibition (Mycobacterium smegmatis; 0.1 mM) [millimeters] | Antibacterial Ms zone of inhibition (Mycobacterium smegmatis; 0.5 mM) [millimeters] | Antibacterial Ms zone of inhibition (Mycobacterium smegmatis; 1 mM) [millimeters] | Antibacterial Bc zone of inhibition (Bacillus cereus; 0.1 mM) [millimeters] | Antibacterial Bc zone of inhibition (Bacillus cereus; 0.5 mM) [millimeters] | Antibacterial Bc zone of inhibition (Bacillus cereus; 1 mM) [millimeters] | Antibacterial Ec zone of inhibition (Escherichia coli; 0.1 mM) | Antibacterial Ec zone of inhibition (Escherichia coli; 0.5 mM) | Antibacterial Cp zone of inhibition ([2]; 0.1 mM) [millimeters] | Antibacterial Cp zone of inhibition ([2]; 0.5 mM) [millimeters] | Antibacterial Cp zone of inhibition ([2]; 1 mM) [millimeters] | Antibacterial Kp zone of inhibition (Klebsiella pneumonia; 0.1 mM) [millimeters] | Antibacterial Kp zone of inhibition (Klebsiella pneumonia; 0.5 mM) [millimeters] | Antibacterial Kp zone of inhibition (Klebsiella pneumonia; 1 mM) [millimeters] | Antibacterial Ml zone of inhibition (Micrococcus luteus; 0.1 mM) [millimeters] | Antibacterial Ml zone of inhibition (Micrococcus luteus; 0.5 mM) [millimeters] | Antibacterial Ml zone of inhibition (Micrococcus luteus; 1 mM) [millimeters] | further results
1 | CC(C)(C)c1ccc(OCc2nnc(-c3nc4ccccc4s3)o2)cc1 [HGN-836] | 0 | 0 | 11 | 0 | 0 | 0 | 0 | 0 | 13 | 0 NT millimeters | 0 NT millimeters | 0 | 0 | 0 | 0 | 0 | 7 | 0 | 0 | 0 | Antibacterial Bt zone of inhibition ([1]; 0.1 mM): 0 15 18 millimeters; Antibacterial Bt zone of inhibition ([1]; 0.5 mM): 0 15 18 millimeters; Antibacterial Bt zone of inhibition ([1]; 1 mM): 0 15 18 millimeters; Antibacterial Pa zone of inhibition (Pseudomonas aeruginosa; 0.1 mM): 0 millimeters; Antibacterial Pa zone of inhibition (Pseudomonas aeruginosa; 0.5 mM): 0 millimeters; Antibacterial Pa zone of inhibition (Pseudomonas aeruginosa; 1 mM): 0 millimeters
2 | Clc1ccc(OCc2nnc(-c3cc4ccccc4[nH]3)o2)c(Cl)c1 [HGN-810] | 0 | 0 | 0 | 0 | 0 | 0 | 0 | 11 | 16.5 | 0 millimeters | 0 millimeters | 0 | 0 | 0 | 0 | 0 | 0 | 0 | 0 | 0 | Antibacterial Bt zone of inhibition ([1]; 0.1 mM): 0 11.5 17 millimeters; Antibacterial Bt zone of inhibition ([1]; 0.5 mM): 0 11.5 17 millimeters; Antibacterial Bt zone of inhibition ([1]; 1 mM): 0 11.5 17 millimeters; Antibacterial Ec zone of inhibition (Escherichia coli; 1 mM): 0 millimeters; Antibacterial Pa zone of inhibition (Pseudomonas aeruginosa; 0.1 mM): 0 millimeters; Antibacterial Pa zone of inhibition (Pseudomonas aeruginosa; 0.5 mM): 0 millimeters; Antibacterial Pa zone of inhibition (Pseudomonas aeruginosa; 1 mM): 0 millimeters
3 | c1ccc(OCc2nnc(-c3cc4ccccc4[nH]3)o2)cc1 [HGN-811] | 0 | 0 | 0 | 0 | 0 | 0 | 0 | 12.5 | 16 | 0 millimeters | 0 millimeters | 0 | 0 | 0 | 0 | 0 | 0 | 0 | 0 | 0 | Antibacterial Bt zone of inhibition [1]: 0 8 12 millimeters; Antibacterial Ec zone of inhibition (Escherichia coli; 1 mM): 0 millimeters; Antibacterial Pa zone of inhibition (Pseudomonas aeruginosa; 0.1 mM): 0 millimeters; Antibacterial Pa zone of inhibition (Pseudomonas aeruginosa; 0.5 mM): 0 millimeters; Antibacterial Pa zone of inhibition (Pseudomonas aeruginosa; 1 mM): 0 millimeters
